{
  "source": "ChEMBL document CHEMBL5137121",
  "about": "“Spiroisoxazoline Inhibitors of Acetylcholinesterase from Pseudoceratina verrucosa. Quantitative Chiroptical Analysis of Configurational Heterogeneity, and Total Synthesis of (±)-Methyl Purpuroceratate C” (J Nat Prod, 2022)",
  "key": {"Acetylcholinesterase": {"target": "Acetylcholinesterase (Electrophorus electricus, UniProt O42275)", "sequence (O42275 whole entry)": "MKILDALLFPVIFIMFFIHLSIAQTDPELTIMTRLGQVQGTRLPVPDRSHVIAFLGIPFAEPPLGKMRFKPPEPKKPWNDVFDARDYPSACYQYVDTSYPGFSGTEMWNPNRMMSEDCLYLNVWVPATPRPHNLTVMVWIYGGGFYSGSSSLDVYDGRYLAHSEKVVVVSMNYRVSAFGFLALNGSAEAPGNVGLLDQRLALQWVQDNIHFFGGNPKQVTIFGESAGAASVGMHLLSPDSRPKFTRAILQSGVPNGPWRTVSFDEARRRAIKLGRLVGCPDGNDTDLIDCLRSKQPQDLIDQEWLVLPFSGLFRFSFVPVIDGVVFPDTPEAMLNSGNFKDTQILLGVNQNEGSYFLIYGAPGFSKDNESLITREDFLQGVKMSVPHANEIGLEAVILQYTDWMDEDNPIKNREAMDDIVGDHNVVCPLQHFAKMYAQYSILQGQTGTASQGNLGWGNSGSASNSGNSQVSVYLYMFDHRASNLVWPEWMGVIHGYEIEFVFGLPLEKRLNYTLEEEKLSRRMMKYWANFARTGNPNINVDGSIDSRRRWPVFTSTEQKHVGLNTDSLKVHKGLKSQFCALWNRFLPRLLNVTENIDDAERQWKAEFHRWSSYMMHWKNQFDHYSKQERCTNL", "experiment": "Inhibition of electric eel AChE using acetylthiocholine as substrate preincubated with enzyme for 30 mins followed by substrate addition by Ellman's method"}, "Cholinesterase": {"target": "Cholinesterase (Equus caballus, UniProt P81908)", "sequence (P81908 whole entry)": "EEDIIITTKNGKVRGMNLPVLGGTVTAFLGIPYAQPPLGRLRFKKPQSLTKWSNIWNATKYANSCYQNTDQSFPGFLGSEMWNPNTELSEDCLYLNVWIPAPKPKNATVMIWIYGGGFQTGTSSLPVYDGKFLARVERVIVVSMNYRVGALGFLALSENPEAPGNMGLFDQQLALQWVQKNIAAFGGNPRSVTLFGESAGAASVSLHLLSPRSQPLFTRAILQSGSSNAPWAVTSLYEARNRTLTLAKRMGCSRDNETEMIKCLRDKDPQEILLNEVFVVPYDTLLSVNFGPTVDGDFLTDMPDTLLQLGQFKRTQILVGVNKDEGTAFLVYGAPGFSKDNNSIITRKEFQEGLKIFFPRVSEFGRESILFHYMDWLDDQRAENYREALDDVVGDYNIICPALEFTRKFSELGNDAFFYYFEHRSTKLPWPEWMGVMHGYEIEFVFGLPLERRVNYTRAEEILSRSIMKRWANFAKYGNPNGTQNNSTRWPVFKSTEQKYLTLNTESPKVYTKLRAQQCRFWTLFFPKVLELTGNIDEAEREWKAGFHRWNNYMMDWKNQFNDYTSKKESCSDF", "experiment": "Inhibition of horse BuChE using butyrylthiocholine as substrate preincubated with enzyme for 30 mins followed by substrate addition by Ellman's method"}, "[1]": {"experiment": "Selectivity index, ratio of IC50 for horse BuChE to IC50 for electric eel AChE"}},
  "data": [
    {"smiles": "COC1=C(Br)[C@H](O)[C@@]2(C=C1Br)CC(C(=O)NCCc1cc(Br)c(OCCC(C(=O)[O-])[N+](C)(C)C)c(Br)c1)=NO2", "note": "(stereo not given in full)", "values": [
      {"measurement": "IC50", "setting": "Acetylcholinesterase", "result": 4.79, "unit": "µM"},
      {"measurement": "IC50", "setting": "Cholinesterase", "result": 10, "unit": "µM"},
      {"measurement": "Ratio IC50", "setting": "[1]", "result": 2.1}
    ]},
    {"smiles": "COC1=C(Br)[C@H](O)[C@@]2(C=C1Br)CC(C(N)=O)=NO2", "values": [
      {"measurement": "IC50", "setting": "Acetylcholinesterase", "result": 3.32, "unit": "µM"},
      {"measurement": "IC50", "setting": "Cholinesterase", "result": 15.4, "unit": "µM"},
      {"measurement": "Ratio IC50", "setting": "[1]", "result": 4.6}
    ]},
    {"smiles": "COC1=C(Br)[C@H](O)[C@@]2(C=C1Br)CC(C(=O)NCCCCCNC(=N)N)=NO2", "note": "[APLYSINAMISINE II]", "values": [
      {"measurement": "IC50", "setting": "Acetylcholinesterase", "result": 0.77, "unit": "µM"},
      {"measurement": "IC50", "setting": "Cholinesterase", "result": 10.3, "unit": "µM"},
      {"measurement": "Ratio IC50", "setting": "[1]", "result": 13}
    ]},
    {"smiles": "COC1=C(Br)[C@H](O)[C@@]2(C=C1Br)CC(C(=O)NCCCOc1c(Br)cc(C[C@H](N)C(=O)O)cc1Br)=NO2", "values": [
      {"measurement": "IC50", "setting": "Acetylcholinesterase", "result": 19.9, "unit": "µM"},
      {"measurement": "IC50", "setting": "Cholinesterase", "result": "> 100", "unit": "µM"},
      {"measurement": "Ratio IC50", "setting": "[1]", "result": "> 5"}
    ]},
    {"smiles": "COC1=C(Br)[C@H](O)[C@@]2(C=C1Br)CC(C(=O)NCCc1cc(Br)c(O)c(Br)c1)=NO2", "values": [
      {"measurement": "IC50", "setting": "Acetylcholinesterase", "result": 5.8, "unit": "µM"},
      {"measurement": "IC50", "setting": "Cholinesterase", "result": 10.7, "unit": "µM"},
      {"measurement": "Ratio IC50", "setting": "[1]", "result": 1.9}
    ]}
  ]
}
